Data: patent EP4772505A1, “COMPOUND FOR DEGRADING ANDROGEN RECEPTOR AND MEDICAL USE THEREOF” (Ubix Therapeutics, Inc., priority 2023, dated 2025)
Where two headings read alike, the source gives them in different places.

Assay: Plasma and tumor tissue concentrations following oral administration in VCaP xenograft model (HPLC/MS/MS)
Assay type: in vivo, mice
Conditions: mouse, 10 mg/kg orally once daily for 3 days
Experimental: The plasma and tumor tissue concentrations of the drug administered orally to a xenograft model using VCaP cells were analyzed as follows.
[Blood collection and tumor tissue extraction] The prepared drug was administered orally at a dose of 10 mg/kg once daily at the same time for 3 days. The mice were sacrificed 2, 6, and 24 hours after the last administration. Blood collection and tumor tissue extraction were performed immediately after sacrifice at each hour. Blood collected from the heart was placed in a K2EDTA tube for 30 minutes and then centrifuged at 15,000 rpm at 4°C for 10 minutes. The supernatant plasma was separated and stored at -20°C for analysis. The extracted tumor tissue was washed in PBS, cut into pieces of approximately 10 mg, and stored at -80°C for analysis.
[Sample Preparation] Cancer tissue was homogenized once at 5,500 rpm for 20 seconds after adding distilled water 9 times the tissue weight using a tissue homogenizer (Precellys Evolution, Bertin Technology). For cancer tissue, 20 µL of the homogenate was mixed with 20 µL of blank plasma sample, 20 µL of internal standard (carbamazepine, 30 ng/mL in acetonitrile), and 140 µL of acetonitrile. For plasma, 20 µL of the plasma sample was mixed with 20 µL of blank liver tissue sample, 20 µL of internal standard, and 140 µL of acetonitrile. Afterwards, the mixed sample was suspended for 10 minutes using a vortex mixer and centrifuged at 13,500 rpm for 10 minutes at room temperature. 140 µL of the supernatant was collected and transferred to an analysis container.
[Sample Analysis] Drug concentrations in cancer tissue and plasma samples were quantified using an HPLC/MS/MS system. 5 µL of the sample prepared in the analytical vessel was injected into the HPLC/MS/MS system for analysis. For drug quantification, a combination of 0.1% formic acid in distilled water and 0.1% formic acid in acetonitrile was used as the mobile phase. The analytical column used was a reverse-phase C18 column, and chromatograms were analyzed using isocratic elution. Ion detection was performed in ESI positive MRM mode, and peak integration was performed using Analyst software version 1.6.4 (Applied Biosystems/MDS SCIEX). Drug concentrations in cancer tissue were calculated by multiplying the concentrations obtained from the analysis of cancer tissue homogenate by a dilution factor of 10.

Molecule N#Cc1ccc(N2CCC(C(=O)Nc3ccc(OC4CCN(CC5CCN(c6ccc(N[C@H]7CCC(=O)NC7=O)cc6F)CC5)CC4)cn3)CC2)cc1C(F)(F)F [Example 2, (S)-1-(4-cyano-3-(trifluoromethyl)phenyl)-N-(5-((1-((1-(4-((2,6-dioxopiperidin-3-yl)amino)-2-fluorophenyl)piperidin-4-yl)methyl)piperidin-4-yl)oxy)pyridin-2-yl)piperidine-4-carboxamide] has a concentration at 2 h (plasma, 2 hours after the last administration, read-out: Concentration in Plasma) of 816 ng/mL, a concentration at 6 h (plasma, 6 hours after the last administration, read-out: Concentration in Plasma) of 610 ng/mL and a concentration at 24 h (plasma, 24 hours after the last administration, read-out: Concentration in Plasma) of 51 ng/mL. The Kp at 2 h (tumor tissue / plasma, 2 hours after the last administration, read-out: Tissue to Plasma Ratio) was 6.78, the Kp at 6 h (tumor tissue / plasma, 6 hours after the last administration, read-out: Tissue to Plasma Ratio) was 10.1 and the Kp at 24 h (tumor tissue / plasma, 24 hours after the last administration, read-out: Tissue to Plasma Ratio) was 16.3. For the same molecule, the concentration at 2 h (tumor tissue, 2 hours after the last administration, read-out: Concentration in Tumor Tissue) was 5560 ng/g, the concentration at 6 h (tumor tissue, 6 hours after the last administration, read-out: Concentration in Tumor Tissue) was 6130 ng/g and the concentration at 24 h (tumor tissue, 24 hours after the last administration, read-out: Concentration in Tumor Tissue) was 834 ng/g.
